pIC50: −log10 of the molar value.
Legend:
[1] = target: Hepatocyte growth factor receptor (Homo sapiens, UniProt P08581); assay: Inhibition of c-Met (unknown origin) using poly (Glu, Tyr) 4:1 substrate incubated for 30 mins by HTRF assay
[2] = target: Vascular endothelial growth factor receptor 2 (Homo sapiens, UniProt P35968); assay: Inhibition of KDR (unknown origin) using poly (Glu, Tyr) 4:1 substrate incubated for 30 mins by HTRF assay
[3] = target: Mast/stem cell growth factor receptor Kit (Homo sapiens, UniProt P10721); assay: Inhibition of c-Kit (unknown origin) using poly (Glu, Tyr) 4:1 substrate incubated for 30 mins by HTRF assay
A549 = assay: Cytotoxicity against human A549 cells after 72 hrs by MTT assay; conditions: A549, 72 h
HT-29 = assay: Cytotoxicity against human HT-29 cells after 72 hrs by MTT assay; conditions: HT-29, 72 h
[4] = target: Platelet-derived growth factor receptor beta (Homo sapiens, UniProt P09619); assay: Inhibition of PDGFRbeta (unknown origin) using poly (Glu, Tyr) 4:1 substrate incubated for 30 mins by HTRF assay
Sequence of Platelet-derived growth factor receptor beta (P09619 whole entry): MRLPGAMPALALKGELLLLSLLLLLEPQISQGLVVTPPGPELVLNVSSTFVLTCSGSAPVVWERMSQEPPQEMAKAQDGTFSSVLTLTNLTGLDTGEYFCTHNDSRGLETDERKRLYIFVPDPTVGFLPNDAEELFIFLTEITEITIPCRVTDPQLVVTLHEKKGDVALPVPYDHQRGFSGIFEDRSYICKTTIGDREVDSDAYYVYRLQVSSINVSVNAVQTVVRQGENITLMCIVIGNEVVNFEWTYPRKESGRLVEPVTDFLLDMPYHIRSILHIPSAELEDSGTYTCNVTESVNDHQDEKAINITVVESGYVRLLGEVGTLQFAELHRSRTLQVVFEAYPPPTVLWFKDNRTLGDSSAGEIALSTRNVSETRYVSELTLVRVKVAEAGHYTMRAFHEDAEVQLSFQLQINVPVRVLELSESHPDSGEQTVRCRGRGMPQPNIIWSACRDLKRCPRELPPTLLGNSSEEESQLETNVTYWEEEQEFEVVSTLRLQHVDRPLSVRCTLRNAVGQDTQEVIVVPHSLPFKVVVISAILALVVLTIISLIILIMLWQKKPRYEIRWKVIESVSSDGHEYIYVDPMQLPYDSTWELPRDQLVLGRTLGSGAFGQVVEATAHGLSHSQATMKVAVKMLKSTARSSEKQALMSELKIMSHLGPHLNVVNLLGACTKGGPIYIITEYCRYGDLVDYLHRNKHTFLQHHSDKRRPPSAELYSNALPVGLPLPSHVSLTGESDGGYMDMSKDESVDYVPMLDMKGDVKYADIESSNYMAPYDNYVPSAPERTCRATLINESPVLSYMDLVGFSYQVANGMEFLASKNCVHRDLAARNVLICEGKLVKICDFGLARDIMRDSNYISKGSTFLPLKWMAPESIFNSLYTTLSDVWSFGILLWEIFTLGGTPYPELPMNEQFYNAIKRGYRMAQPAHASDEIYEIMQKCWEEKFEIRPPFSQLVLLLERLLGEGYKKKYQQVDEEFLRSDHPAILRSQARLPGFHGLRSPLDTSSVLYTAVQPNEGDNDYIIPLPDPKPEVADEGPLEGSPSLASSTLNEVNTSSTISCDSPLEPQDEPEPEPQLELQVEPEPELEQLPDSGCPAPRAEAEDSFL

[5] = target: Epidermal growth factor receptor (Homo sapiens, UniProt P00533); assay: Inhibition of EGFR (unknown origin) using poly (Glu, Tyr) 4:1 substrate incubated for 30 mins by HTRF assay
Sequence of Epidermal growth factor receptor (P00533 whole entry): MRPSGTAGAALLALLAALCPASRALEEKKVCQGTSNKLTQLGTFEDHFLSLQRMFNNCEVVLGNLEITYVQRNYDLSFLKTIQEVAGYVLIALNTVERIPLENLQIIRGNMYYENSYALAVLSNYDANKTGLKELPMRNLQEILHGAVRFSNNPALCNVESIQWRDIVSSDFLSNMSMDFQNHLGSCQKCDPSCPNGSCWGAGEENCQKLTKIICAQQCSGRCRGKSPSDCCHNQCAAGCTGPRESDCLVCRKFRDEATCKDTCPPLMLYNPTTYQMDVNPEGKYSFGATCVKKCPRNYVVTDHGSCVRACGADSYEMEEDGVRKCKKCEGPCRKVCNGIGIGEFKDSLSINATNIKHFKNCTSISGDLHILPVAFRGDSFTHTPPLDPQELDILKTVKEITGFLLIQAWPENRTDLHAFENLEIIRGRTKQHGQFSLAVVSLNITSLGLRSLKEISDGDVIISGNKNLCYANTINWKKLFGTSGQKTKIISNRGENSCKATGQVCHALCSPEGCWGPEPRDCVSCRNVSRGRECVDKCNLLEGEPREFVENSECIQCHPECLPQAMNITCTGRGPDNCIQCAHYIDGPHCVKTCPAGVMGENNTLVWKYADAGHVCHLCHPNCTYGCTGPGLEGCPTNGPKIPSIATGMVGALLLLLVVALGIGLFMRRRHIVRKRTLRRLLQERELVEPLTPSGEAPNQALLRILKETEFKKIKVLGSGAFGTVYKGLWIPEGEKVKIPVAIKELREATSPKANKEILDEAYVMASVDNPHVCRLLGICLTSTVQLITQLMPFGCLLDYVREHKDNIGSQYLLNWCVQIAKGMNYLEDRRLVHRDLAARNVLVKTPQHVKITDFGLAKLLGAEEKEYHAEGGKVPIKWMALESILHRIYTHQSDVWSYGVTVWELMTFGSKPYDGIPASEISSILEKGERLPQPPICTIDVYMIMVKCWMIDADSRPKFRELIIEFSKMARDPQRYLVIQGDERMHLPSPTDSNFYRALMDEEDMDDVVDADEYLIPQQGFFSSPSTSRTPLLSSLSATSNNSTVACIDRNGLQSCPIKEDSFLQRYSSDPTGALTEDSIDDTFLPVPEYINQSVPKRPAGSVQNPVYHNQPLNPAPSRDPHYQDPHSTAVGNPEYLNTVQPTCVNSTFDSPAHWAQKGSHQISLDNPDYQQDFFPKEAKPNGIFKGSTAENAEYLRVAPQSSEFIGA

[6] = Cytotoxicity against human U87MG cells after 72 hrs by MTT assay; format: functional, cell-based, U-87MG ATCC; conditions: U-87 MG
[7] = Cytotoxicity against human H460 cells after 72 hrs by MTT assay; conditions: NCI-H460, 72 h
[8] = Cytotoxicity against human MKN45 cells after 72 hrs by MTT assay; conditions: MKN-45, 72 h
[9] = target: T1, Receptor-type tyrosine-protein kinase FLT3 (Homo sapiens, UniProt P36888); assay: Inhibition of FLT3 (unknown origin) using poly (Glu, Tyr) 4:1 substrate incubated for 30 mins by HTRF assay
T1 sequence (P36888 whole entry): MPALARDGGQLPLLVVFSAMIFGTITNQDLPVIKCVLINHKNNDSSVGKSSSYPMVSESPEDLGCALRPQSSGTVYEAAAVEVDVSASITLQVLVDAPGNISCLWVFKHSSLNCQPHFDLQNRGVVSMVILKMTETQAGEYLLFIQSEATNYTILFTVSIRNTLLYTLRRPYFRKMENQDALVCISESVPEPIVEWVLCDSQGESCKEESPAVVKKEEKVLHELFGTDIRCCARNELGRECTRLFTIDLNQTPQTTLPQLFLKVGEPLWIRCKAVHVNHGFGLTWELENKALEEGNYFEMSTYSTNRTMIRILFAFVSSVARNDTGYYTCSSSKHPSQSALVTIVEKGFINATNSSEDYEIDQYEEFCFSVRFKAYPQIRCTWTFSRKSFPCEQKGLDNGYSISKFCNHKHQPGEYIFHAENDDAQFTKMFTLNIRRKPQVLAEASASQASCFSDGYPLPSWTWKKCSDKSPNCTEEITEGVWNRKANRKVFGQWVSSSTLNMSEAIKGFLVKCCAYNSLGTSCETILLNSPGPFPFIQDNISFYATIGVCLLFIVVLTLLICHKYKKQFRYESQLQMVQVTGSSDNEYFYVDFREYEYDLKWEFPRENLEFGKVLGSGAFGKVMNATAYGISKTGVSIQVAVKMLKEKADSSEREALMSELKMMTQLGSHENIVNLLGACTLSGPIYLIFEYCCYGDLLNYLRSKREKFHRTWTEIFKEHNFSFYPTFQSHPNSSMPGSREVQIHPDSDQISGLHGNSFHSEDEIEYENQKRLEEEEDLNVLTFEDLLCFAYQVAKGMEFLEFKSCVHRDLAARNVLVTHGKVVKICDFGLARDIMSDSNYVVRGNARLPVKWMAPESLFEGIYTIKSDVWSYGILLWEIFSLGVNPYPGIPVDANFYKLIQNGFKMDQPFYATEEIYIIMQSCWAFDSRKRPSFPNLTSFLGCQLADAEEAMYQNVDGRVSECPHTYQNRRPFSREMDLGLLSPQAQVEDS

Sequence of Vascular endothelial growth factor receptor 2 (P35968 whole entry): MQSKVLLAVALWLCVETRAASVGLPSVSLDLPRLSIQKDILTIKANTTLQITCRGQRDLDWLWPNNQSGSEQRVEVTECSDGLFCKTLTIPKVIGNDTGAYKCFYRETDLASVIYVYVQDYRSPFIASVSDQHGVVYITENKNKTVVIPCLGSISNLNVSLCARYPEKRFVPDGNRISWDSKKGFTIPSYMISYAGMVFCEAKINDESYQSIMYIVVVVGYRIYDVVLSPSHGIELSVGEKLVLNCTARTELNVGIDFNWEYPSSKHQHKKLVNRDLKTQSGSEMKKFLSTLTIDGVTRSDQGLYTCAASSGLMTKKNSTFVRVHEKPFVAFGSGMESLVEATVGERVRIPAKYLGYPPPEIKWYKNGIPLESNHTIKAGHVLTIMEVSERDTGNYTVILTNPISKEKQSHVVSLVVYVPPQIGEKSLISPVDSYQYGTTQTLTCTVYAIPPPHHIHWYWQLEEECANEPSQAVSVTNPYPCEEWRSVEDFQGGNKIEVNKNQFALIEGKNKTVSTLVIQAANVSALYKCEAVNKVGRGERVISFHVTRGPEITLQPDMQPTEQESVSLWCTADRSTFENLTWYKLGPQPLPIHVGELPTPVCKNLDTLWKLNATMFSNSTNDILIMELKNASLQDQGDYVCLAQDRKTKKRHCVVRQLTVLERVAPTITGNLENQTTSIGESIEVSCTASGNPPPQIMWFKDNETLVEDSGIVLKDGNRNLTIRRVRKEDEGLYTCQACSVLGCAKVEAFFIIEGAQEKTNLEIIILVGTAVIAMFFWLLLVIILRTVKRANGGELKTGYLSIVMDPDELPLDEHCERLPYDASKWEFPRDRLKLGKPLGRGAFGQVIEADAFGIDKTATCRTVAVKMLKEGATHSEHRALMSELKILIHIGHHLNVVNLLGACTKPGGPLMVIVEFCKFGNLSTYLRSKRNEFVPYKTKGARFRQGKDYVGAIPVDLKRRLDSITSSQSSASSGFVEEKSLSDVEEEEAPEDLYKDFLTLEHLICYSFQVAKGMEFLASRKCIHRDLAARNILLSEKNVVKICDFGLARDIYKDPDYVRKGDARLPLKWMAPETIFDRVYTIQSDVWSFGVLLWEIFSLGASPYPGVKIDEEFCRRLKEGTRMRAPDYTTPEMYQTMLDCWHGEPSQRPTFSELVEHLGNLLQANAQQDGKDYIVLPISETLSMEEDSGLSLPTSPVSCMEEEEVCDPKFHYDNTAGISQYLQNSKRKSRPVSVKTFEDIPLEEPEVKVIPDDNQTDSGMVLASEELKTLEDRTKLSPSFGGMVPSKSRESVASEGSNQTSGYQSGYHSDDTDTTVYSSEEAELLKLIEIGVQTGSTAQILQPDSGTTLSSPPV
Sequence of Hepatocyte growth factor receptor (P08581 whole entry): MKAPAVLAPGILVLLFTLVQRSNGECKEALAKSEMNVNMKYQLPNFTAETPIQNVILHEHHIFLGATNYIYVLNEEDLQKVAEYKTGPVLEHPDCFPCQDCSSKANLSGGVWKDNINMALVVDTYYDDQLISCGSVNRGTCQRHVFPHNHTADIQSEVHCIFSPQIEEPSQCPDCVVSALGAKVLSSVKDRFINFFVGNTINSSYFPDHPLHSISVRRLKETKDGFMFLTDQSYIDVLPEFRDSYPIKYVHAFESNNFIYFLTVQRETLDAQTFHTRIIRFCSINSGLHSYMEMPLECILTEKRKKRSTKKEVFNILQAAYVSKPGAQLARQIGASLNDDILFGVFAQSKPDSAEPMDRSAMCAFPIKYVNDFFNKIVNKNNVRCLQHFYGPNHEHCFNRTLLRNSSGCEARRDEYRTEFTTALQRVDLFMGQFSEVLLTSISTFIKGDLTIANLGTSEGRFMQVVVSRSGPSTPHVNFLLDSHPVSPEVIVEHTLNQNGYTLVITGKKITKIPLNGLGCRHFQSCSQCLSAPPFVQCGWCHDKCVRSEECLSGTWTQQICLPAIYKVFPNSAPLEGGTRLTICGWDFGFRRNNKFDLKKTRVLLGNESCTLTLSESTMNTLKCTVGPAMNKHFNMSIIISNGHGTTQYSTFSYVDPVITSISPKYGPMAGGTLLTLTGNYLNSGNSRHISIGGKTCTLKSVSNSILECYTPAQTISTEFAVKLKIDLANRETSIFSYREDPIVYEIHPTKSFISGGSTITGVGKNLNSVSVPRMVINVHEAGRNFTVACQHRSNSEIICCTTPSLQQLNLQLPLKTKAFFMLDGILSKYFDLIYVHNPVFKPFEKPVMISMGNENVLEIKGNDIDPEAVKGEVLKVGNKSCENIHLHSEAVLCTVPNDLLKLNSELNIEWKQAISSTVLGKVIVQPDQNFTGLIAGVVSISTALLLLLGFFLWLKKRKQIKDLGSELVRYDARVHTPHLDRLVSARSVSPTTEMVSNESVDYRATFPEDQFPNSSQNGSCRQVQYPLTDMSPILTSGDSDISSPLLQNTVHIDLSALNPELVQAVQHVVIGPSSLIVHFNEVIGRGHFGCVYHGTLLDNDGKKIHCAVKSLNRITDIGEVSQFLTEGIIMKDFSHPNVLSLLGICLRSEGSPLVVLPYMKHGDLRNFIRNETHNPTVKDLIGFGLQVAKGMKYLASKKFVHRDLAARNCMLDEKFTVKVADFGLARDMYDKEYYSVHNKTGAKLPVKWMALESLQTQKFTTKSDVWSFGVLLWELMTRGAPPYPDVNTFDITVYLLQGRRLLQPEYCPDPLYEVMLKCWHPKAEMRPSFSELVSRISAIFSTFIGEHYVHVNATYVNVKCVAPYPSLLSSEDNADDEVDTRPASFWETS

`COc1cc2c(Oc3ccc(NC(=O)c4nnn(-c5ccc(F)cc5)c4C(F)(F)F)cc3F)ccnc2cc1OCCCN1CCCC1` showed a pIC50 [1] of 8.98, a pIC50 [2] of 7.18 and a pIC50 [3] of 8.40. For the same compound, the pIC50 (A549) was 7.10, the pIC50 (HT-29) was 6.92 and the pIC50 [4] was 7.79. For the same compound, the pIC50 [5] was < 5.00, the pIC50 [6] was 6.07 and the pIC50 [7] was 6.82. The pIC50 [8] was 7.68 and the pIC50 [9] was 8.06.

Source: ChEMBL document CHEMBL3352351 (Bioorg Med Chem, 2014)
